Test results taken from ChEMBL document CHEMBL1128407 (J Med Chem, 1995).

Tests used:
HCT-116 = assay: Compound is evaluated for an in vitro cytotoxicity assay against HCT116 tumor cell lines; type: functional, cell-based; conditions: Homo sapiens
[1] = biological target: Tubulin alpha chain (Sus scrofa) (UniProt P02550); assay: Compound is evaluated for tubulin polymerization (ratio of compound relative to paclitaxel (EC0.01).
Tubulin alpha chain (Sus scrofa), sequence (P02550 whole entry, looked up): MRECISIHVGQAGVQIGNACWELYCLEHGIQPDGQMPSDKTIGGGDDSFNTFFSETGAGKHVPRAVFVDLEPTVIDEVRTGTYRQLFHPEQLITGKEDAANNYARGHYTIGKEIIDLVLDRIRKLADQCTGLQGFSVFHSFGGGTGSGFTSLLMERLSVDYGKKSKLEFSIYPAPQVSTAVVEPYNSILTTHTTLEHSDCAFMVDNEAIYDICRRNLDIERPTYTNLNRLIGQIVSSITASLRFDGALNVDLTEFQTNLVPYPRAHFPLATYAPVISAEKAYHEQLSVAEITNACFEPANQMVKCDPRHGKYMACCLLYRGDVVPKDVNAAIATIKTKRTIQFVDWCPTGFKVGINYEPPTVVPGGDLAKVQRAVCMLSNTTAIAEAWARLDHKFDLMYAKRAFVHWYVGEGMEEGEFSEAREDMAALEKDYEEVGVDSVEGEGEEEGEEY

Row | Structure (SMILES) | IC50 (HCT-116) [nM] | Ratio [1]
1 | CC(=O)O[C@H]1C(=O)[C@@]2(C)[C@H]([C@H](OC(=O)c3ccccc3)[C@]3(O)C[C@H](OC(=O)[C@H](O)[C@@H](NC(=O)c4ccccc4)c4ccccc4)C(C)=C1C3(C)C)[C@]1(OC(=O)N3CC3)CO[C@@H]1C[C@@H]2O | 15.6 | 
2 | CC(=O)O[C@H]1C(=O)[C@]2(C)[C@@H](O)CC3OC[C@@]3(OC(C)=O)[C@H]2[C@H](OC(=O)c2ccccc2)[C@]2(O)C[C@H](OC(=O)[C@H](O)[C@@H](NC(=O)OC(C)(C)C)c3ccccc3)C(C)=C1C2(C)C (stereo not given in full) | 0.55 | 0.55
3 | CC(=O)O[C@H]1C(=O)[C@]2(C)[C@@H](O)CC3OC[C@@]3(OC(=O)N3CC3)[C@H]2[C@H](OC(=O)c2ccccc2)[C@]2(O)C[C@H](OC(=O)[C@H](O)[C@@H](NC(=O)OC(C)(C)C)c3ccco3)C(C)=C1C2(C)C (stereo not given in full) | 2 | 0.8
4 | CC(=O)O[C@H]1C(=O)[C@]2(C)[C@@H](O)CC3OC[C@@]3(OC(C)=O)[C@H]2[C@H](OC(=O)c2ccccc2)[C@]2(O)C[C@H](OC(=O)[C@H](O)[C@@H](NC(=O)c3ccccc3)c3ccoc3)C(C)=C1C2(C)C (stereo not given in full) | 0.74 | 0.85
5 | CC(=O)O[C@H]1C(=O)[C@]2(C)[C@@H](O)CC3OC[C@@]3(OC(=O)N3CC3)[C@H]2[C@H](OC(=O)c2ccccc2)[C@]2(O)C[C@H](OC(=O)[C@H](O)[C@@H](NC(=O)c3ccccc3)c3ccco3)C(C)=C1C2(C)C (stereo not given in full) | 6.9 | 0.7
6 | CC(=O)O[C@H]1C(=O)[C@]2(C)[C@@H](O)CC3OC[C@@]3(OC(=O)C3CC3)[C@H]2[C@H](OC(=O)c2ccccc2)[C@]2(O)C[C@H](OC(=O)[C@H](O)[C@@H](NC(=O)c3ccccc3)c3ccccc3)C(C)=C1C2(C)C (stereo not given in full) | 1 | 
